The record followed here is the SangsterLogP compilation.

Experiment in one data set: not given
Settings: not given
A word on the logP: it is the decadic logarithm of the partition coefficient of the neutral form, usually between octanol and water. Low readings indicate a more hydrophilic compound, high ones a more lipophilic compound. For the compound `Cc1cccc(C)c1OC(=O)c1ccccc1CN1CCCC1`, the logP worked out at 3.09. On to `CCN(CC)Cc1cccc(C(=O)Oc2c(C)cccc2C)c1`, for which the logP was determined as 2.99. Compound `Cc1cccc(C)c1OC(=O)c1ccc(CN2CCCCC2)cc1` gave a logP of 3.5. Still for that read-out and setting: to `Cc1cccc(C)c1OC(=O)c1cccc(CN2CCCC2)c1` belongs 3.18; to `Cc1cccc(C)c1OCc1ccccc1CN1CCOCC1`, 4.16. Take `Cc1cccc(C)c1OC(=O)c1ccc(CN2CCCC2)cc1`: the logP stood at 3.2.

The compound `Cc1cccc(C)c1NC(=O)c1ccc(CN2CCOCC2)cc1` displayed a lipophilicity (logP) of 1.76.

The nature of the next data set: method code SF-AS, from DOI: 10.1002/qsar.19880070104. The note with it: pH 7.4.
For orientation: logD means the decadic logarithm of the distribution of all forms, ionised or not, between an organic phase and buffer at a given pH. In the case of `Cc1cccc(C)c1NC(=O)OCc1cccc(CN2CCOCC2)c1`, the logD was determined as 1.85. In turn, `Cc1cccc(C)c1NC(=O)OCc1ccccc1CN1CCOCC1` displayed a logD of 2.8. Consider `Cc1cccc(C)c1OCc1ccc(CN2CCOCC2)cc1`, for which the logD came out at 3.76. `Cc1cccc(C)c1NC(=O)OCc1ccc(CN2CCOCC2)cc1` had a logD of 2.2. In turn, `Cc1cccc(C)c1OC(=O)NCc1cccc(CN2CCOCC2)c1` returned a logD of 2.91. For the compound `Cc1cccc(C)c1OC(=O)NCc1ccc(CN2CCOCC2)cc1`, the logD stood at 2.7. In the case of `Cc1cccc(C)c1OC(=O)NCc1ccccc1CN1CCOCC1`, the logD worked out at 3.54. The compound `Cc1cccc(C)c1NC(=O)c1ccccc1CN1CCOCC1` gave a logD of 2.46. Same read-out and setting: to `Cc1cccc(C)c1OC(=O)c1ccc(CN2CCOCC2)cc1` belongs 3.92.

Turning to `Cc1cccc(C)c1OC(=O)OCc1cccc(CN2CCOCC2)c1`, the logD was 3.47. Consider `Cc1cccc(C)c1OC(=O)c1ccccc1CN1CCOCC1`, for which the pH-dependent lipophilicity (logD) came to 3.48. Compound `Cc1cccc(C)c1OCc1cccc(CN2CCOCC2)c1` yielded a logD of 3.74. With `Cc1cccc(C)c1OC(=O)OCc1ccc(CN2CCOCC2)cc1`, the log distribution coefficient (logD) was found to be 3.34. As to `Cc1cccc(C)c1OC(=O)c1cccc(CN2CCOCC2)c1`, the logD is 3.91.
